For 1 compound, koff results are on record in BindingDB's records for PubMed 35442672 (Fudan University, 2022).

The target of the experiment is T1, Dual specificity mitogen-activated protein kinase kinase 3 (Homo sapiens, UniProt P46734).
T1 sequence (P46734 whole entry): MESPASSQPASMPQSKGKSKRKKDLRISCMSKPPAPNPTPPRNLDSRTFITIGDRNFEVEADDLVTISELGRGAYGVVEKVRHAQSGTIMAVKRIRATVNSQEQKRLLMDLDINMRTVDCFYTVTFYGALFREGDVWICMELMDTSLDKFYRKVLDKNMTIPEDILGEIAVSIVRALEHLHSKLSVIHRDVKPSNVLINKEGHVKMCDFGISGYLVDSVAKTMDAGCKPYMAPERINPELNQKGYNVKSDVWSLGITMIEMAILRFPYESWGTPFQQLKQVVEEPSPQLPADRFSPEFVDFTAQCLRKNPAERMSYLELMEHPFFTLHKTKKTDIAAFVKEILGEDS
As to the kind of experiment: Binding affinity to CM5 chip immobilized human MKK3 (20 to 347 residues) expressed in Escherichia coli BL21 (DE3) assessed as dissociation constant, Kd by surface plasmon resonance analysis. (In general: In SPR one partner is held on a chip, and binding of the other changes the refractive index at the surface.)

On to `COc1ccc([C@H]2CC(=O)c3cc(OC)cc(OC)c32)cc1`, for which the koff came to 0.00361 s⁻¹.

Broadly, the koff is a measure of how fast the partners let go of each other.
